# Assay results from US20020035061A1, “COMPOSITIONS AND METHODS FOR TREATING INFECTIONS USING CATIONIC PEPTIDES ALONE OR IN COMBINATION WITH ANTIBIOTICS” (priority 1996, published 2002).
# Test system: microorganisms with acquired resistance
# Assay: microbe, parasite or virus in culture
# Format: cell-based
# Settings: for Peptide MIC: in µg/mL
sequence,measurement,setting,value
KWKSFIKKLTSAAKKVVTTAKPLISS [MBI 26],Gentamicin MIC + Peptide,A. baumannii ABI001,4 µg/mL
same,Peptide MIC + Gentamicin,A. baumannii ABI001,4 µg/mL
same,Peptide MIC Alone,"A. baumannii ABI001, Gentamicin section",8 µg/mL
same,Gentamicin MIC + Peptide,A. baumannii ABI002,0.5 µg/mL
same,Peptide MIC + Gentamicin,A. baumannii ABI002,4 µg/mL
same,Peptide MIC Alone,"A. baumannii ABI002, Gentamicin section",8 µg/mL
same,Ceftriaxone MIC + Peptide,A. baumannii ABI005,0.5 µg/mL
same,Peptide MIC + Ceftriaxone,A. baumannii ABI005,1 µg/mL
same,Peptide MIC Alone,"A. baumannii ABI005, Ceftriaxone section",2 µg/mL
same,Ceftriaxone MIC + Peptide,A. baumannii ABI006,8 µg/mL
same,Peptide MIC + Ceftriaxone,A. baumannii ABI006,1 µg/mL
same,Peptide MIC Alone,"A. baumannii ABI006, Ceftriaxone section",2 µg/mL
same,Peptide MIC + Piperacillin,A. calcoaceticus 2,16 µg/mL
same,Piperacillin MIC + Peptide,A. calcoaceticus 2,4 µg/mL
same,Peptide MIC Alone,"A. calcoaceticus 2, Piperacillin section",32 µg/mL
same,Ciprofloxacin MIC + Peptide,A. calcoaceticus 5,0.25 µg/mL
same,Peptide MIC + Ciprofloxacin,A. calcoaceticus 5,16 µg/mL
same,Peptide MIC Alone,"A. calcoaceticus 5, Ciprofloxacin section",>32 µg/mL
same,Peptide MIC + Piperacillin,A. calcoaceticus 7,8 µg/mL
same,Piperacillin MIC + Peptide,A. calcoaceticus 7,4 µg/mL
same,Peptide MIC Alone,"A. calcoaceticus 7, Piperacillin section",>32 µg/mL
same,Peptide MIC,"A. calcoaceticus, combination with Ceftazidime",32
same,Peptide MIC,"A. calcoaceticus, combination with Ciprofloxacin",4
same,Ceftriaxone MIC + Peptide,B. cepacia BC003,8 µg/mL
same,Peptide MIC + Ceftriaxone,B. cepacia BC003,0.125 µg/mL
same,Peptide MIC Alone,"B. cepacia BC003, Ceftriaxone section",>128 µg/mL
same,Peptide MIC + Piperacillin,E. cloacae 13,8 µg/mL
same,Piperacillin MIC + Peptide,E. cloacae 13,4 µg/mL
same,Peptide MIC Alone,"E. cloacae 13, Piperacillin section",>32 µg/mL
same,Ciprofloxacin MIC + Peptide,E. cloacae 16,0.25 µg/mL
same,Peptide MIC + Ciprofloxacin,E. cloacae 16,16 µg/mL
same,Peptide MIC Alone,"E. cloacae 16, Ciprofloxacin section",>32 µg/mL
same,Ciprofloxacin MIC + Peptide,E. cloacae 17,0.25 µg/mL
same,Peptide MIC + Ciprofloxacin,E. cloacae 17,16 µg/mL
same,Peptide MIC Alone,"E. cloacae 17, Ciprofloxacin section",>32 µg/mL
same,Peptide MIC + Piperacillin,E. cloacae 19,16 µg/mL
same,Piperacillin MIC + Peptide,E. cloacae 19,4 µg/mL
same,Peptide MIC Alone,"E. cloacae 19, Piperacillin section",>32 µg/mL
same,Ceftriaxone MIC + Peptide,E. cloacae ECL015,4 µg/mL
same,Peptide MIC + Ceftriaxone,E. cloacae ECL015,4 µg/mL
same,Peptide MIC Alone,"E. cloacae ECL015, Ceftriaxone section",32 µg/mL
same,Peptide MIC + Piperacillin,H. influenzae 1,32 µg/mL
same,Piperacillin MIC + Peptide,H. influenzae 1,4 µg/mL
same,Peptide MIC Alone,"H. influenzae 1, Piperacillin section",>128 µg/mL
same,Peptide MIC + Piperacillin,H. influenzae 2,16 µg/mL
same,Piperacillin MIC + Peptide,H. influenzae 2,16 µg/mL
same,Peptide MIC Alone,"H. influenzae 2, Piperacillin section",>128 µg/mL
same,Peptide MIC + Piperacillin,P. aeruginosa 7,32 µg/mL
same,Piperacillin MIC + Peptide,P. aeruginosa 7,32 µg/mL
same,Peptide MIC Alone,"P. aeruginosa 7, Piperacillin section",>128 µg/mL
same,Peptide MIC + Piperacillin,P. aeruginosa 23,32 µg/mL
same,Piperacillin MIC + Peptide,P. aeruginosa 23,4 µg/mL
same,Peptide MIC Alone,"P. aeruginosa 23, Piperacillin section",>64 µg/mL
same,Peptide MIC + Piperacillin,P. aeruginosa 26,32 µg/mL
same,Piperacillin MIC + Peptide,P. aeruginosa 26,8 µg/mL
same,Peptide MIC Alone,"P. aeruginosa 26, Piperacillin section",>32 µg/mL
same,Ciprofloxacin MIC + Peptide,P. aeruginosa 30,0.25 µg/mL
same,Peptide MIC + Ciprofloxacin,P. aeruginosa 30,2 µg/mL
same,Peptide MIC Alone,"P. aeruginosa 30, Ciprofloxacin section",>32 µg/mL
same,Ciprofloxacin MIC + Peptide,P. aeruginosa 31,0.25 µg/mL
same,Peptide MIC + Ciprofloxacin,P. aeruginosa 31,16 µg/mL
same,Peptide MIC Alone,"P. aeruginosa 31, Ciprofloxacin section",>32 µg/mL
same,Gentamicin MIC + Peptide,P. aeruginosa PA023,4 µg/mL
same,Peptide MIC + Gentamicin,P. aeruginosa PA023,64 µg/mL
same,Peptide MIC Alone,"P. aeruginosa PA023, Gentamicin section",>128 µg/mL
same,Peptide MIC + Tobramycin,P. aeruginosa PA031,16 µg/mL
same,Tobramycin MIC + Peptide,P. aeruginosa PA031,4 µg/mL
same,Peptide MIC Alone,"P. aeruginosa PA031, Tobramycin section",32 µg/mL
same,Gentamicin MIC + Peptide,P. aeruginosa PA041,4 µg/mL
same,Peptide MIC + Gentamicin,P. aeruginosa PA041,16 µg/mL
same,Ciprofloxacin MIC + Peptide,P. aeruginosa PA41,1 µg/mL
same,Peptide MIC + Ciprofloxacin,P. aeruginosa PA41,32 µg/mL
same,Peptide MIC Alone,"P. aeruginosa PA41, Ciprofloxacin section",128 µg/mL
same,Peptide MIC Alone,"P. aeruginosa PA041, Gentamicin section",64 µg/mL
same,Ciprofloxacin MIC + Peptide,P. aeruginosa PA77,0.125 µg/mL
same,Peptide MIC + Ciprofloxacin,P. aeruginosa PA77,64 µg/mL
same,Peptide MIC Alone,"P. aeruginosa PA77, Ciprofloxacin section",128 µg/mL
same,Peptide MIC,"S. aureus, combination with Ampicillin",0.25
same,Peptide MIC,"S. aureus, combination with Mupirocin",4
same,Peptide MIC + Tobramycin,S. epidermidis SE068,0.5 µg/mL
same,Tobramycin MIC + Peptide,S. epidermidis SE068,4 µg/mL
same,Peptide MIC Alone,"S. epidermidis SE068, Tobramycin section",2 µg/mL
same,Peptide MIC + Tobramycin,S. epidermidis SE071,8 µg/mL
same,Tobramycin MIC + Peptide,S. epidermidis SE071,0.125 µg/mL
same,Peptide MIC Alone,"S. epidermidis SE071, Tobramycin section",16 µg/mL
same,Peptide MIC,"S. epidermidis, combination with Clindamycin",2
same,Peptide MIC,"S. haemolyticus, combination with Clindamycin",1
same,Peptide MIC,"S. haemolyticus, combination with Methicillin",2
same,Peptide MIC + Piperacillin,S. maltophilia 2,2 µg/mL
same,Piperacillin MIC + Peptide,S. maltophilia 2,16 µg/mL
same,Peptide MIC Alone,"S. maltophilia 2, Piperacillin section",4 µg/mL
same,Peptide MIC + Piperacillin,S. maltophilia 4,8 µg/mL
same,Piperacillin MIC + Peptide,S. maltophilia 4,16 µg/mL
same,Peptide MIC Alone,"S. maltophilia 4, Piperacillin section",16 µg/mL
same,Ciprofloxacin MIC + Peptide,S. maltophilia 34,0.25 µg/mL
same,Peptide MIC + Ciprofloxacin,S. maltophilia 34,8 µg/mL
same,Peptide MIC Alone,"S. maltophilia 34, Ciprofloxacin section",>32 µg/mL
same,Ciprofloxacin MIC + Peptide,S. maltophilia 35,0.5 µg/mL
same,Peptide MIC + Ciprofloxacin,S. maltophilia 35,16 µg/mL
same,Peptide MIC + Piperacillin,S. maltophilia 35,16 µg/mL
same,Piperacillin MIC + Peptide,S. maltophilia 35,4 µg/mL
same,Peptide MIC Alone,"S. maltophilia 35, Ciprofloxacin section",>32 µg/mL
same,Peptide MIC Alone,"S. maltophilia 35, Piperacillin section",>32 µg/mL
same,Peptide MIC + Piperacillin,S. maltophilia 41,32 µg/mL
same,Piperacillin MIC + Peptide,S. maltophilia 41,16 µg/mL
same,Peptide MIC Alone,"S. maltophilia 41, Piperacillin section",>32 µg/mL
same,Gentamicin MIC + Peptide,S. maltophilia SMA017,1 µg/mL
same,Peptide MIC + Gentamicin,S. maltophilia SMA017,8 µg/mL
same,Peptide MIC Alone,"S. maltophilia SMA017, Gentamicin section",16 µg/mL
same,Gentamicin MIC + Peptide,S. maltophilia SMA019,2 µg/mL
same,Peptide MIC + Gentamicin,S. maltophilia SMA019,2 µg/mL
same,Peptide MIC Alone,"S. maltophilia SMA019, Gentamicin section",4 µg/mL
same,Peptide MIC + Tobramycin,S. maltophilia SMA027,64 µg/mL
same,Tobramycin MIC + Peptide,S. maltophilia SMA027,4 µg/mL
same,Peptide MIC Alone,"S. maltophilia SMA027, Tobramycin section",>128 µg/mL
